In patent US7544703B2, “Cyclic compound having 4-pyridylalkylthio group having substituted or unsubstituted amino group introduced therein” (Santen Pharmaceutical Co., Ltd., priority 2004, dated 2009):
Where a name gives a salt, the structure may show the parent alone.

How the values were obtained:
B16 cells = assay: Tumor growth inhibitory action test using cancer models in mice (B16 cells); format: in vivo; details: C57BL/6N mouse, B16 cells intradermal; 100 mg/kg/day oral once a day, day 0 to day 10; average of 9 mice per group; read-out: Tumor tissue weight inhibition rate (%)
Method: A tumor growth inhibitory action test of the compounds of the present invention was performed using a tumor growth model in mice, which is one of the widely-used methods of evaluating in vivo anticancer effects of drugs.
As one of the widely-used methods of evaluating anticancer effects of drugs, a tumor growth inhibitory action test using cancer models in mice has been reported in Cancer Res., 59, 5209-5218 (1999). According to the method described in the above-mentioned document, a tumor growth inhibitory action test of the compounds of the present invention was performed, the tumor tissue weight inhibition rate was calculated, and the anticancer effect of each of the compounds of the present invention was evaluated using the obtained rate as an index.
A 1% aqueous methyl cellulose solution was added to each test compound to suspend it with a sonicator, whereby a 10 mg/mL test compound suspension was prepared.
Physiological saline was added to B16 cells, whereby a 3.3×10^7 cells/mL B16 cell suspension was prepared.
• 1) The back of each mouse (female, 6 weeks of age, C57BL/6N mouse) was depilated using a depilatory under Nembutal anesthesia. • 2) Several days after the depilation, the B16 cell suspension (300 μL) was injected intradermally into the back of the mouse under Nembutal anesthesia. • 3) From the B16 cell injection day (i.e. on day 0) to day 10, the test compound suspension (100 mg/kg/day) was orally administered once a day consecutively. • 4) Ten days after the injection of the cells, the mouse was euthanized with CO2 gas. • 5) A tumor tissue was enucleated from the mouse, and the weight of the tumor tissue was measured with an electronic balance. • 6) A test was performed in the same manner as in 1) to 5) except that the 1% aqueous methyl cellulose solution was used instead of the test compound suspension, and the result was used as a control. (Calculation of Tumor Tissue Weight Inhibition Rate)
A tumor tissue weight inhibition rate (the average of 9 mice per group), which was used as an index of anticancer effect, was calculated according to the following calculation equation. Tumor tissue weight inhibition rate (%)=100−(Mx/Mo)×100 (Calculation Equation) Mo: Tumor tissue weight of control group Mx: Tumor tissue weight of test compound solution administration group (Test Results and Discussion)

[1] = system: HUVEC (normal human umbilical vein endothelial cells); assay: VEGF-induced HUVEC proliferation: cell proliferation inhibitory action test; format: cell-based; details: 72 h, 5 μL of 20 μg/mL test compound solution per well, WST-8 absorbance at 450 nm three days after VEGF addition, read-out: Cell proliferation inhibition rate (%);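 also: each well holds 100 µL cell suspension before compound addition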
Method: A cell proliferation inhibitory action test of the compounds of the present invention was performed using a VEGF-induced HUVEC proliferation evaluation system (HUVEC stands for normal human umbilical vein endothelial cells), which is one of the widely-used methods of evaluating in vitro angiogenesis inhibitory effects of drugs. As one of the widely-used methods of evaluating angiogenesis inhibitory effects of drugs, a cell proliferation inhibitory action test using a VEGF-induced HUVEC proliferation reaction evaluation system has been reported in Cancer Res., 59, 99-106 (1999). According to the method described in the above-mentioned document, a cell proliferation inhibitory action test of the compounds of the present invention was performed, the cell proliferation inhibition rate was calculated, and the angiogenesis inhibitory effect of each of the compounds of the present invention was evaluated using the obtained rate as an index. Each test compound was dissolved in dimethyl sulfoxide (hereinafter abbreviated as DMSO), and the obtained solution was diluted with a commercially available phosphoric acid buffer solution (hereinafter abbreviated as PBS), whereby a 20 μg/mL test compound solution was prepared. HUVEC was suspended in a 0.5% fetal bovine serum (hereinafter abbreviated as FBS)-containing F12K medium, whereby a 2×10^4 cells/mL HUVEC suspension was prepared. VEGF was dissolved in 0.1% bovine serum albumin-containing PBS, and the obtained solution was diluted with the 0.5% FBS-containing F12K medium, whereby a 400 ng/mL VEGF solution was prepared. • 1) The HUVEC suspension was inoculated in an amount of 100 μL into each well of a 96-well plate coated with type I collagen (2×10^3 cells per well). • 2) One day after the inoculation, the test compound solution was added in an amount of 5 μL per well. • 3) One hour after the addition of the test compound solution, the VEGF solution was added in an amount of 5 μL per well. • 4) Three days after the addition of the VEGF solution, WST-8 assay kit (Dojin Chemical Co., Ltd.) was added in an amount of 10 μL per well. • 5) After 3 hours, the above-mentioned plate was attached to an absorptiometer (Multilabel Counter ARVO), and an absorbance at 450 nm of each well suspension (hereinafter referred to as test compound suspension) was measured. • 6) A test was carried out in the same manner as in the above 1) to 5) except that 1.0% DMSO was used instead of the test compound solution. The result was used as a control. Incubation was carried out under conditions of 37° C., 5% carbon dioxide and […] in an incubator throughout the above-mentioned test steps. The cell proliferation inhibition rate (%), which was used as an index of an angiogenesis inhibitory effect, was calculated according to the following calculation equation. Cell proliferation inhibition rate (%)=100−{(Absorbance of test compound suspension−A)/(absorbance of control−A)}×100 (Calculation Equation) A: Absorbance of only cell suspension (cell+medium) (Test Results and Discussion)

SMILES | inhibition in vivo at 100 mg/kg/day (B16 cells) [%] | inhibition at 20 µg/mL (stock) [1] [%]
CC(=O)Nc1cc(CSc2ncccc2C(=O)Nc2ccc(OC(F)(F)F)c(Cl)c2)ccn1 [Compound 4-14, 2-(2-Acetylaminopyridin-4-ylmethylthio)-N-(3-chloro-4-trifluoromethoxyphenyl)pyridine-3-carboxamide] | 44 | –
CC(=O)Nc1cc(CSc2ccsc2C(=O)Nc2cc(C)cc(C)c2)ccn1 [Compound 4-56, 3-(2-Acetylaminopyridin-4-ylmethylthio)-N-(3,5-dimethylphenyl)thiophene-2-carboxamide] | 42 | 99
CC(=O)Nc1cc(CSc2ccccc2C(=O)Nc2cc(C)cc(C)c2)ccn1 [Compound 4-43, 2-(2-Acetylaminopyridin-4-ylmethylthio)-N-(3,5-dimethylphenyl)benzamide] | 47 | –
CC(=O)Nc1cc(CSc2ncccc2C(=O)Nc2cccc(Cl)c2)ccn1 [Compound 4-16, 2-(2-Acetylaminopyridin-4-ylmethylthio)-N-(3-chlorophenyl)pyridine-3-carboxamide] | 74 | –
Cc1cc(C)cc(NC(=O)c2cccnc2SCc2ccnc(N3CCOCC3)c2)c1 [Compound 1-4, N-(3,5-Dimethylphenyl)-2-(2-morpholinopyridin-4-ylmethylthio)pyridine-3-carboxamide] | 68 | 100
CCC(=O)Nc1cc(CSc2ncccc2C(=O)Nc2cc(C)cc(C)c2)ccn1 [Compound 4-2, N-(3,5-Dimethylphenyl)-2-(2-propionylaminopyridin-4-ylmethylthio)pyridine-3-carboxamide] | 51 | 100
CC(C)c1cccc(NC(=O)c2cccnc2SCc2ccnc(N)c2)c1 [Compound 3-2, 2-(2-Aminopyridin-4-ylmethylthio)-N-(3-isopropylphenyl)pyridine-3-carboxamide monohydrochloride] | 61 | 97
Nc1cc(CSc2ncccc2C(=O)Nc2ccc3cn[nH]c3c2)ccn1 [Compound 3-5, 2-(2-Aminopyridin-4-ylmethylthio)-N-(1H-indazol-6-yl)pyridine-3-carboxamide monohydrochloride] | – | 96
CC(C)(C)OC(=O)Nc1cc(CSc2ncccc2C(=O)Nc2ccc(C(C)(C)C)cc2)ccn1 [Compound 2-5, 2-(2-tert-Butoxycarbonylaminopyridin-4-ylmethylthio)-N-(4-tert-butylphenyl)pyridine-3-carboxamide] | – | 95
Nc1cc(CSc2ncccc2C(=O)Nc2ccc(Cl)cc2)ccn1 [Compound 3-9, 2-(2-Aminopyridin-4-ylmethylthio)-N-(4-chlorophenyl)pyridine-3-carboxamide monohydrochloride] | – | 100
CCCCCNc1cc(CSc2ncccc2C(=O)Nc2cc(C)cc(C)c2)ccn1 [Compound 1-20, N-(3,5-Dimethylphenyl)-2-(2-n-pentylaminopyridin-4-ylmethylthio)pyridine-3-carboxamide] | – | 100
Cc1cc(C)cc(NC(=O)c2cccnc2SCc2ccnc(NC3CC3)c2)c1 [Compound 1-2, 2-(2-Cyclopropylaminopyridin-4-ylmethylthio)-N-(3,5-dimethylphenyl)pyridine-3-carboxamide] | – | 100
Cc1cc(C)cc(NC(=O)c2ccccc2SCc2ccnc(N)c2)c1 [Compound 3-20, 2-(2-Aminopyridin-4-ylmethylthio)-N-(3,5-dimethylphenyl)benzamide monohydrochloride] | 42 | 100
Cc1cc(C)cc(NC(=O)c2cccnc2SCc2ccnc(NC(=O)NC(C)(C)C)c2)c1 [Compound 5-2, 2-[2-(N′-tert-Butylureido)pyridin-4-ylmethylthio]-N-(3,5-dimethylphenyl)pyridine-3-carboxamide] | – | 100
CNc1cc(CSc2ncccc2C(=O)Nc2ccc3c(c2)CCC3)ccn1 [Compound 3-7, N-(Indan-5-yl)-2-(2-methylaminopyridin-4-ylmethylthio)pyridine-3-carboxamide monohydrochloride] | – | 96
Nc1cc(CSc2ncccc2C(=O)Nc2cc3ccccc3cn2)ccn1 [Compound 3-13, 2-(2-Aminopyridin-4-ylmethylthio)-N-(isoquinolin-3-yl)pyridine-3-carboxamide] | – | 100
CC(=O)Nc1cc(CSc2ccsc2C(=O)Nc2ccc(Cl)cc2)ccn1 [Compound 4-57, 3-(2-Acetylaminopyridin-4-ylmethylthio)-N-(4-chlorophenyl)thiophene-2-carboxamide] | – | 100
Cc1cc(C)cc(NC(=O)c2cccnc2SCc2ccnc(N3CCCCC3)c2)c1 [Compound 1-5, N-(3,5-Dimethylphenyl)-2-[2-(piperidin-1-yl)pyridin-4-ylmethylthio]pyridine-3-carboxamide] | – | 90
Cc1cc(C)cc(NC(=O)c2cccnc2SCc2ccnc(NC=O)c2)c1 [Compound 6-1, N-(3,5-Dimethylphenyl)-2-(2-formylaminopyridin-4-ylmethylthio)pyridine-3-carboxamide] | – | 100
CC(=O)N1CCN(c2cc(CSc3ncccc3C(=O)Nc3ccc4c(c3)CCC4)ccn2)CC1 [Compound 1-11, 2-[2-(4-Acetylpiperazin-1-yl)pyridin-4-ylmethylthio]-N-(indan-5-yl)-pyridine-3-carboxamide] | – | 96
CC(C)(C)c1ccc(NC(=O)c2cccnc2SCc2ccnc(N)c2)cc1 [Compound 3-4, 2-(2-Aminopyridin-4-ylmethylthio)-N-(4-tert-butylphenyl)pyridine-3-carboxamide monohydrochloride] | – | 100
CC(=O)N(C)c1cc(CSc2ncccc2C(=O)Nc2cc(C)cc(C)c2)ccn1 [Compound 4-12, 2-[2-(N-Acetyl-N-methylamino)pyridin-4-ylmethylthio]-N-(3,5-dimethylphenyl)pyridine-3-carboxamide] | – | 100
CC(=O)Nc1cc(CSc2ccccc2C(=O)Nc2ccc(Cl)cc2)ccn1 [Compound 4-42, 2-(2-Acetylaminopyridin-4-ylmethylthio)-N-(4-chlorophenyl)benzamide] | – | 100
